How the values were obtained:
[1] = tested on: Aspergillus fumigatus-based mouse asthma model; experiment: Aspergillus fumigatus-based mouse asthma model, lung resistance; format: in vivo; details: 20 mg/ml, intraperitoneally; for Lung resistance: A. fumigatus insult, day 29
Description: Compounds of the invention were also tested for efficiacy in an asthma model.
A cohort of mice was administered intraperitoneal injections of Aspergillus fumigatus on days 0, 14, 26, 27, and 28. Lung resistance was tested on day 29 immediately following a tracheotomy/methacholine procedure. Animals receiving dexamethasone were administered dexamethasone on days 26, 27 and 28. Animals receiving a compound of the invention were administered the compound just hours before the lung resistance test. As a control, all test compounds, as well as dexamethasone, were also administered to mice in the absence of an A. fumigatus insult.

[2] = tested on: Serotonin (5-Hydroxytryptamine) 5-HT1, Non-Selective; experiment: Assay 271000 radioligand binding, 5-HT1 non-selective; parameters: species or system Wistar Rat
Description: (§1) The methods employed in this study have been adapted from the scientific literature to maximize reliability and reproducibility. Reference standards were run as an integral part of each assay to ensure the validity of the results obtained. Assays were performed under conditions as described below. Where presented, IC50 values were determined by a non-linear, least squares regression analysis using the Data Analysis Toolbox (MDL Information Systems, San Leandro, Calif., USA). Where inhibition constants (Ki) are presented, the Ki values were calculated using the equation of Cheng and Prusoff (Cheng, Y., Prusoff, W. H., Biochem. Pharmacol. 22:3099-3108, 1973) using the observed IC50 of the tested compound, the concentration of radioligand employed in the assay, and historical values for the KD of the ligand. Where presented, the Hill coefficient (nu), defining the slope of the competitive binding curve, was calculated using the Data Analysis Toolbox.

[3] = biological target: T1, Serotonin (5-Hydroxytryptamine) 5-HT1A (Homo sapiens, UniProt P08908); experiment: Radioligand binding, 5-HT1A ([3H] 8-OH-DPAT)
T1 construct: expressed in transfected cells; host or cells: CHO cells
T1 sequence (P08908 1-422): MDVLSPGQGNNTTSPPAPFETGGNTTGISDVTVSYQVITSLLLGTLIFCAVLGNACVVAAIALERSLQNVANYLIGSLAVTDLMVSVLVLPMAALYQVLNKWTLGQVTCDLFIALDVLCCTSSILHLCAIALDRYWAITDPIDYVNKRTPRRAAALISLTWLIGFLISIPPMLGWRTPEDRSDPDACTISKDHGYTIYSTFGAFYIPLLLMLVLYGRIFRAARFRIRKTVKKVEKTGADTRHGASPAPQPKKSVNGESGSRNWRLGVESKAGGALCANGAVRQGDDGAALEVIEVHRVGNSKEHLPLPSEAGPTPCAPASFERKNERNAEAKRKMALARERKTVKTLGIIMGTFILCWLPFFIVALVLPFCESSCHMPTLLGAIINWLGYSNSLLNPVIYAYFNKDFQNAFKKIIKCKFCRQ
Description: as §1

[4] = biological target: T2, Serotonin (5-Hydroxytryptamine) 5-HT1B (Rattus norvegicus, UniProt P28564); experiment: Assay 271200 radioligand binding, 5-HT1B; parameters: species or system Wistar Rat
T2 construct: from tissue
T2 sequence (P28564 whole entry): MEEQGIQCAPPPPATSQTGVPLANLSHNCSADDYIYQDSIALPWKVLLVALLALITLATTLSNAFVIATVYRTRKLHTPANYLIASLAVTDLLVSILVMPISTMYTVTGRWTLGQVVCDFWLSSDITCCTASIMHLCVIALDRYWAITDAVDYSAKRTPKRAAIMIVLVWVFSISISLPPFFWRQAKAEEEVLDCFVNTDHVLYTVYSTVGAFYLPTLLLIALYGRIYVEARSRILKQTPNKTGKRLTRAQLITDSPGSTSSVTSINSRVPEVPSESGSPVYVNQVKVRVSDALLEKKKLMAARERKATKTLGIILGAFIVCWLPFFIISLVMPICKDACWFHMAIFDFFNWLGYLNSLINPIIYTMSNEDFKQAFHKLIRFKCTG
Description: as §1

[5] = tested on: Serotonin (5-Hydroxytryptamine) 5-HT2, Non-Selective; experiment: Assay 271600 radioligand binding, 5-HT2 non-selective; parameters: species or system Wistar Rat
Description: as §1

TNF-α = experiment: Model of LPS-mediated cytokine production, serum TNF-α; format: in vivo, CD1:ICR mice; details: 10 mg/kg
Description: (§2) Both ICI-685 and ICI-735 were formulated in water. For the time course study, both drugs were formulated at a concentration of 1 mg/ml and dosed 10 ml/kg to produce a dose of 10 mg/kg. For the dose-response study, drug was formulated at concentrations of 0.05, 0.2 and 0.5 mg/ml and dosed at a volume of 10 ml/kg to produce doses of 0.5, 2 and 5 mg/kg, respectively. Animals were dosed IV or IP.
CD1:ICR mice were obtained from Harlan (Indianapolis, Ind.) at 6 weeks of age. Animals were housed 5 per cage, kept on a 12 hr light dark cycle and fed food and water ad libitum. Animals were tested at 8-10 weeks of age.
(§3) Lipopolysaccharide (heat killed E. coli 0127:B5; Sigma Aldrich) was prepared in distilled water at a concentration of 0.025 mg/ml. LPS was dosed at a volume of 10 ml/kg (IP) to produce a final dose of 0.25 mg/kg (approximately 7.5 μg/mouse). Drugs were dosed prior to LPS administration as indicated elsewhere herein. Blood was collected by retro-orbital eye bleed 90 minutes after LPS administration, Serum was prepared from blood and TNF-α and IL-1β levels were measured by using the OPT-EIA mouse TNF-α and IL-1β ELISA kits (BD Biosciences) as per directions of the manufacturer.
The first study was designed to determine the optimal route of administration and the optimal pre-treatment time. Two pre-dose time course studies were conducted. The first (Study 1A) was conducted with 3 pre-dose time points (2, 6 and 18 hrs). The second was conducted at 0, 1 and 2 hr predose time points. For both studies, drug was dosed IP or IV.
Using data from the first study, a second study was conducted that was designed to measure dose-response activity of each compound. Compounds were tested at doses of […]., 2.0 and 5 mg/kg using the route and pre-treatment time that produced the best activity.
as §2, with “Compounds ICI-715, ICI-824, ICI-953” for “Both ICI-685”, “ICI-954” for “ICI-735”, “study,” for “study, both”, “drugs were” for “drug was”
as §3, with “mg/ml,” for “mg/ml.”, “[…]).” for “μg/mouse).”, “above.” for “elsewhere herein.”, “administration.” for “administration,”
The first study was designed to determine the optimal route of administration and the optimal pre-treatment time. One pre-dose time course was conducted (for all compounds) with compounds administered at 0, 1 and 2 hrs prior to LPS treatment. For both studies, drug was dosed IP or IV. The IP study and IV study were conducted on separate days.
Using data from the first study, a second study was conducted that was designed to measure dose-response activity of each compound. Compounds were tested at doses of 0.5, 2.0 and 5 mg/kg using the route and pre-treatment time that produced the best activity.

[6] = tested on: rheumatoid arthritis (RA) animal model; experiment: Clinical arthritis score in mice sensitized with collagen injections; format: in vivo
Description: FIGS. 26-28 illustrate the effect of various compounds of the invention on the clinical arthritis score of mice treated with various compounds of the invention.
Additional testing of the effectiveness of compounds ICI-685, ICI-735 and ICI-847 at higher and lower concentrations were conducted, as illustrated in FIG. 29.

% INHIBITION ([2]; 0.1 μM) [%]	% INHIBITION ([2]; 10 μM) [%]	inhibition at 0.1 µM [3] [%]	inhibition at 10 µM [3] [%]	inhibition at 0.1 µM [4] [%]	inhibition at 10 µM [4] [%]	% INHIBITION ([5]; 0.1 μM) [%]	% INHIBITION ([5]; 10 μM) [%]	Compound	Lung resistance [1] [cm H2O/ml/s]	inhibition at 10 mg/kg (TNF-α; Mus musculus, second pre-dose time course study, read-out: inhibition of TNFα) [%]	inhibition of TNFα levels (TNF-α; first time course, 2 hr pretreatment period, IV administration)	inhibition of LPS-stimulated TNFα secretion (TNF-α; pre-dose time course, IV or IP)	effectiveness at treating RA compared with dexamethasone ([6]; 30 mg/kg, FIG. 29)	clinical arthritis score compared with dexamethasone ([6]; orally 10 mg/kg daily, about 21 days, FIG. 26)	decreasing lung resistance compared with dexamethasone [1]
								C[C@@H]1C[C@H]2[C@@H]3CCC4=CC(=O)C=C[C@]4(C)[C@@]3(F)[C@@H](O)C[C@]2(C)[C@@]1(O)C(=O)CO [Dexamethasone, reference compound]	7.75						
−3	32	1	26	6	10	31	82	FC(F)(F)c1ccc2c(c1)N(CCCN1CCNCC1)c1ccccc1S2 [ICI-685]	12	70	did not inhibit	inhibited			
−11	−7	-8	74	-5	-33	3	82	NCCCN1CCC(CCCN2c3ccccc3Sc3ccc(C(F)(F)F)cc32)CC1 [ICI-847]	7.25				as effective for the length of the study as is dexamethasone	as effective as dexamethasone	at least as effective as dexamethasone

Source: patent publication US20120035161A1, “Novel Compositions and Methods of Treating Diseases Using the Same” (CORRIDOR PHARMACEUTICALS, INC., priority 2006, published 2012)
